Counter-ions that a name gives are not always drawn.
What was measured:
[1] = test system: bacterial strains that express the class D cephalosporinase OXA-15; assay: Standard BLI potentiation MIC / synergy MIC assays, strains expressing OXA-15; format: cell-based, E. coli; conditions: in combination with a β-lactam; comparator Avibactam (CCC)
Outline: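 Broth microdilution in cation-adjusted Mueller Hinton broth per CLSI M07-A9, ~10^5 CFU/mL, 18-20 h at 37 °C with aeration; engineered E. coli carrying β-lactamase plasmids kept on 25 μg/mL tetracycline. β-lactam MIC measured in 2-fold dilutions (128-0.13 μg/mL) with BLI fixed at 4 μg/mL; sMIC titrates BLI against a fixed β-lactam concentration. MIC = lowest concentration without visible turbidity.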

[2] = test system: bacterial strains that express KPC β-lactamases; assay: Standard BLI potentiation MIC / synergy MIC assays, strains expressing KPC β-lactamases; format: cell-based; conditions: in combination with a β-lactam; comparator Avibactam
Description: The experimental protocol was performed according to Clinical and Laboratory Standards Institute (CLSI) guidelines with modifications as described below (CLSI guidelines can be derived from the CLSI document M07-A9 published in January 2012: “Methods for Dilution Antimicrobial Susceptibility Tests for Bacteria That Grow Aerobically; Approved Standard-Ninth Edition”).
To prepare for MIC testing, frozen glycerol stocks of clinical isolates (Klebsiella pneumoniae, Eschericia coli, Enterobacter spp, Citrobacter spp, or Pseudomonas aeruginosa) were used to streak for isolated colonies on rich, non-selective, tryptic soy agar containing 5% sheep's blood (TSAB). Frozen glycerol stocks of laboratory engineered, isogenic E. coli strains, which contain cloned β-lactamase expressing plasmids were used to streak for isolated colonies on rich, selective LB agar supplemented with 25 μg/mL tetracycline to maintain the plasmid. All strains were incubated at 37° C. for 18-24 hrs.
On the day of testing, primary cultures were started by scraping off 5-10 colonies from the TSAB plates containing clinical strains or the tetracycline supplemented LB plates containing engineered strains. The clinical strain material was suspended in ˜5 mL of cation adjusted Mueller Hinton Broth (CAMHB) in 14 mL culture tubes. The engineered strain material was suspended in CAMHB (supplemented with 25 μg/mL tetracycline) in 14 mL culture tubes. All strains were incubated at 37° C. with aeration (200 rpm) for ˜2 hrs until the optical density at 600 nm (OD600) was >0.1.
The two compound components of the assay were each diluted in CAMHB and added to the 96-well broth microdilution assay plates. 50 μL of the β-lactam was added to each well of the assay plate in 2-fold dilutions with final concentrations ranging from 128 to 0.13 μg/mL. 25 μL of the BLI compound was added to all wells in the broth microdilution plates at a final concentration of 4 μg/mL. Inoculum cultures were prepared by standardizing the primary cultures to OD600=0.1 and then adding 20 μL of the adjusted primary culture per 1 mL CAMHB for clinical strains or CAMHB (supplemented with tetracycline at 100 μg/mL) for engineered strains, so that the final inoculum density was ˜10^5 colony forming units per milliliter. Diluted inoculum cultures were used to inoculate 25 μl, per well in 96-well broth microdilution assay plates. The final volume of each well was 100 μL and contained a β-lactam at different concentrations, a BLlcompound at 4 μg/mL concentration, the bacterial culture at an OD600 of approximately 0.001 and when necessary tetracycline at 25 μg/mL.
Plates were incubated for 18-20 hours at 37° C. with aeration (200 rpm). Following incubation, growth was confirmed visually placing plates over a viewing apparatus (stand with a mirror underneath) and then OD600 was measured using a SpectraMax 340PC384 plate reader (Molecular Devices, Sunnyvale, Calif.). Growth was defined as turbidity that could be detected with the naked eye or achieving minimum OD600 of 0.1. MIC values were defined as the lowest concentration producing no visible turbidity.
The synergy MIC (sMIC) assay determines the concentration of the BLI required to potentiate the activity of a fixed concentration of a β-lactam antibiotic against β-lactamase producing bacterial strains. The experimental protocol was performed according to Clinical and Laboratory Standards Institute (CLSI) guidelines with modifications as described below (CLSI guidelines can be derived from the CLSI document M07-A9 published in January 2012: “Methods for Dilution Antimicrobial Susceptibility Tests for Bacteria That Grow Aerobically; Approved Standard-Ninth Edition”). […]

Row | SMILES | activity against bacterial strains that express the class D cephalosporinase OXA-15, compared with Avibactam [1] | activity and/or spectrum of activity against bacterial strains that express KPC β-lactamases, compared with Avibactam [2]
1 | N=C(N)N[C@H]1C[C@@H](c2nnc([C@@H]3CC[C@@H]4CN3C(=O)N4OS(=O)(=O)O)o2)C1 [Compound 749, (2S,5R)-2-(5-((1s,3R)-3-guanidinocyclobutyl)-1,3,4-oxadiazol-2-yl)-7-oxo-1,6-diazabicyclo[3.2.1]octan-6-yl hydrogen sulfate] | more active than Avibactam | more active than Avibactam for at least one, bacterial strain that expresses KPC β-lactamase and/or show a better spectrum of activity
2 | CNCCCc1nnc([C@@H]2CC[C@@H]3CN2C(=O)N3OS(=O)(=O)O)o1 [Compound 734, (2S,5R)-2-(5-β-(methylamino)propyl)-1,3,4-oxadiazol-2-yl)-7-oxo-1,6-diazabicyclo[3.2.1]octan-6-yl hydrogen sulfate] | more active than Avibactam | more active than Avibactam for at least one, bacterial strain that expresses KPC β-lactamase and/or show a better spectrum of activity
3 | N[C@H]1C[C@H](c2nnc([C@@H]3CC[C@@H]4CN3C(=O)N4OS(=O)(=O)O)o2)C1 [Compound 727, (2S,5R)-2-(5-((1r,3S)-3-aminocyclobutyl)-1,3,4-oxadiazol-2-yl)-7-oxo-1,6-diazabicyclo[3.2.1]octan-6-yl hydrogen sulfate] | more active than Avibactam | more active than Avibactam for at least one, bacterial strain that expresses KPC β-lactamase and/or show a better spectrum of activity
4 | O=C1N2C[C@@H](CC[C@H]2c2nnc([C@H]3CCNC3)o2)N1OS(=O)(=O)O [Compound 758, (2S,5R)-7-oxo-2-(5-((S)-pyrrolidin-3-yl)-1,3,4-oxadiazol-2-yl)-1,6-diazabicyclo[3.2.1]octan-6-yl hydrogen sulfate] | more active than Avibactam | more active than Avibactam for at least one, bacterial strain that expresses KPC β-lactamase and/or show a better spectrum of activity
5 | N=C(N)N1CC(c2nnc([C@@H]3CC[C@@H]4CN3C(=O)N4OS(=O)(=O)O)o2)C1 [Compound 709, (2S,5R)-2-(5-(1-carbamimidoylazetidin-3-yl)-1,3,4-oxadiazol-2-yl)-7-oxo-1,6-diazabicyclo[3.2.1]octan-6-yl hydrogen sulfate] | more active than Avibactam | more active than Avibactam for at least one, bacterial strain that expresses KPC β-lactamase and/or show a better spectrum of activity
6 | NC1CC(NCc2nnc([C@@H]3CC[C@@H]4CN3C(=O)N4OS(=O)(=O)O)o2)C1 (stereo partly drawn) [Compound 755, (2S,5R)-2-(5-(((3-aminocyclobutyl)amino)methyl)-1,3,4-oxadiazol-2-yl)-7-oxo-1,6-diazabicyclo[3.2.1]octan-6-yl hydrogen sulfate] | more active than Avibactam | more active than Avibactam for at least one, bacterial strain that expresses KPC β-lactamase and/or show a better spectrum of activity
7 | N[C@H]1CC[C@@H](c2nnc([C@@H]3CC[C@@H]4CN3C(=O)N4OS(=O)(=O)O)o2)C1 [Compound 768, (2S,5R)-2-(5-((1R,3S)-3-aminocyclopentyl)-1,3,4-oxadiazol-2-yl)-7-oxo-1,6-diazabicyclo[3.2.1]octan-6-yl hydrogen sulfate] | more active than Avibactam | more active than Avibactam for at least one, bacterial strain that expresses KPC β-lactamase and/or show a better spectrum of activity

Source: patent US8962843B2, “1,3,4-oxadiazole and 1,3,4-thiadiazole beta-lactamase inhibitors” (priority 2012, dated 2015)
